SMILES strings stand for the structures.

This assay concerns the target T1, Glycogen phosphorylase, liver form (Homo sapiens, UniProt P06737).
T1 sequence (P06737 whole entry): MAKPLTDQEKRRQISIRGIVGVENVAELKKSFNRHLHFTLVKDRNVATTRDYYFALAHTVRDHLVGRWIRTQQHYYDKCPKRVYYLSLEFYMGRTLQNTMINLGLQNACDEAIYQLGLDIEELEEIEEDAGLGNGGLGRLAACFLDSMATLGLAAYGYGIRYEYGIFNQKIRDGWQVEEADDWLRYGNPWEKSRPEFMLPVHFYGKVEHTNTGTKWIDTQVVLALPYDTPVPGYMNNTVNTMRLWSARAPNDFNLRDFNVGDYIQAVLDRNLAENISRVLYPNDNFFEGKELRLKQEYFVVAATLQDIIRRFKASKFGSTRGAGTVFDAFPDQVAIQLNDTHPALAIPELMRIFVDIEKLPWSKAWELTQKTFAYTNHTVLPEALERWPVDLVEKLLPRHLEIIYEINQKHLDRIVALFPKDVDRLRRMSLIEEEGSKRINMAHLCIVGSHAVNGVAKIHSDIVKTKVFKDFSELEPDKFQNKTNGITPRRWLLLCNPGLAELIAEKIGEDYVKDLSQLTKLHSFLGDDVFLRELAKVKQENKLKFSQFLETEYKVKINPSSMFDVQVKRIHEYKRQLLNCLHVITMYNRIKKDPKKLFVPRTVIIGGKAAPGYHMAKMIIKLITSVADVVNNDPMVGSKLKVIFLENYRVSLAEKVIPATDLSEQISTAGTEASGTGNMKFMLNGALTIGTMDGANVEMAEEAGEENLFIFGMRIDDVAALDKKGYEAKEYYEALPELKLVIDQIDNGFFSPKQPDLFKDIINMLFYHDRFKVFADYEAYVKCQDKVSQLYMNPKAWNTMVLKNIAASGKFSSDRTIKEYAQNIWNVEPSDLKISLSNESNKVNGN
Description: Inhibition Activity Assay. Particulars: pH 7.2; 22 °C. The method, then: Human liver glycogen phsphorylase (HLGP) activity was measured in the direction of glycogen synthesis by the release of phosphate from glucose-1-phosphate.

In the case of `Cc1ccc2[nH]c(C(=O)NCCOCCOCCNC(=O)c3cc4cc(Cl)ccc4[nH]3)cc2c1` [CP-526,423], half-maximal inhibition (IC50) was put at 0.006 µM.
In the case of `COCCNC(=O)c1cc2cc(Cl)ccc2[nH]1`, the IC50 (usually the point on the concentration scale where inhibition reaches its midpoint) turned out to be 12.5 µM.
